For nine molecules, TGI and GI50 results are on record in PubChem BioAssay (NCI).

In general, TGI refers to the concentration at which net growth stops. A low value points to greater sensitivity of the cells. For orientation: GI50 means the concentration at which growth is held to half of that of the control.

Among the test systems are A498 renal; A549 NSCLC; HCC-2998 colon; MOLT-4 leukemia; OVCAR-8 ovarian; RXF 393 renal; SK-MEL-2 melanoma; SK-MEL-5 melanoma; SNB-19 CNS; UACC-257 melanoma.
Common to all, as to assay: DTP human tumour cell line panel, 48 h

The structures appear in SMILES notation.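 How tested: cells in 96-well plates exposed to compound for 48 hours at five concentrations. Here, GI50 denotes the concentration required for 50% inhibition of growth. TGI is the concentration that stops growth completely.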 Where only a bound is given, the exact number is not on record here.

Take `C[N+](C)=c1nc(N2CCOCC2)ss1`: the TGI with A498 renal, with A549 NSCLC, in the assay with HCC-2998 colon, in the assay with MOLT-4 leukemia, in the assay with OVCAR-8 ovarian and in the assay on RXF 393 renal was above 100 µM each time. The total growth inhibition concentration (TGI) in the assay on SK-MEL-2 melanoma, in the assay with SK-MEL-5 melanoma, in the assay on SNB-19 CNS and with UACC-257 melanoma was above 100 µM each time.
In the case of `CN(C)C/C=C/C(=O)Nc1ccc(C(=O)N2CCC[C@@H](Nc3ncc(Cl)c(-c4c[nH]c5ccccc45)n3)C2)cc1`, the GI50 was 0.192 µM in the assay with A498 renal; 0.581 µM with A549 NSCLC; 0.107 µM in the assay on HCC-2998 colon; 0.182 µM with MOLT-4 leukemia; 0.406 µM in the assay with OVCAR-8 ovarian; 0.115 µM with RXF 393 renal. Besides, the GI50 was 0.115 µM in the assay on SK-MEL-2 melanoma, 0.231 µM in the assay on SK-MEL-5 melanoma, 0.196 µM in the assay with SNB-19 CNS and 0.234 µM with UACC-257 melanoma. Further, the TGI in the assay with A498 renal amounted to 0.495 µM; in the assay on A549 NSCLC, 11 µM; with HCC-2998 colon it was 1.2 µM; with MOLT-4 leukemia it was 3.55 µM; with OVCAR-8 ovarian it was 11.8 µM; in the assay on RXF 393 renal, 0.561 µM. Moreover, the concentration for total growth inhibition (TGI) in the assay with SK-MEL-2 melanoma came out at 0.392 µM; in the assay on SK-MEL-5 melanoma, 0.618 µM; in the assay with SNB-19 CNS, 11.1 µM; in the assay with UACC-257 melanoma it was 1.32 µM.
In the case of `COc1ccc(CC2=NCCc3cc(OC)c(OC)cc32)cc1Br`, the TGI is 95.1 µM in the assay on A498 renal; above 100 µM with A549 NSCLC; 35.6 µM in the assay on HCC-2998 colon; 58.6 µM in the assay on MOLT-4 leukemia; above 100 µM with OVCAR-8 ovarian; 90.6 µM with RXF 393 renal. Moreover, the total growth inhibition concentration (TGI) is above 100 µM in the assay with SK-MEL-2 melanoma, 25.3 µM in the assay on SK-MEL-5 melanoma, above 100 µM in the assay with SNB-19 CNS and 82.6 µM in the assay with UACC-257 melanoma.
For `C=CC(=O)Nc1cccc(Nc2nc(Nc3ccc(OCCOC(F)F)cc3)ncc2F)c1`, the GI50 was 0.408 µM in the assay with A498 renal; 3.56 µM with A549 NSCLC; 12.6 µM with HCC-2998 colon; 3.73 µM in the assay on MOLT-4 leukemia; 3.33 µM in the assay with OVCAR-8 ovarian; 1.09 µM with RXF 393 renal. In addition, the GI50 in the assay on SK-MEL-2 melanoma was 1.8 µM; in the assay with SK-MEL-5 melanoma it was 3.74 µM; in the assay on SNB-19 CNS, 5.6 µM; with UACC-257 melanoma it was 5.56 µM. In addition, the TGI was 1.83 µM with A498 renal; 20.2 µM with A549 NSCLC; 47.6 µM in the assay with HCC-2998 colon; above 100 µM with MOLT-4 leukemia; 19.4 µM in the assay with OVCAR-8 ovarian; 4.42 µM in the assay on RXF 393 renal. Also, the TGI in the assay on SK-MEL-2 melanoma is 6.82 µM; in the assay on SK-MEL-5 melanoma it was 15.1 µM; in the assay on SNB-19 CNS it was above 100 µM; with UACC-257 melanoma it was 47.5 µM.
For the molecule `C[C@@H]1C/C=C\C(=O)O[C@H](/C=C/C#C/C=C/C(C)(C)[C@@H](O)c2cccc(O)c2Br)[C@@H](C)/C=C/[C@H](C)C[C@H](OC(N)=O)C1`, the GI50 in the assay on A498 renal was 0.543 µM; in the assay with A549 NSCLC it was 0.0332 µM; in the assay with HCC-2998 colon, 0.054 µM; with MOLT-4 leukemia, 0.034 µM; in the assay with OVCAR-8 ovarian it was 0.0512 µM; with RXF 393 renal, 0.636 µM. Besides, the 50% growth inhibitory concentration (GI50) in the assay with SK-MEL-2 melanoma was 0.0346 µM; with SK-MEL-5 melanoma, 0.0179 µM; in the assay on SNB-19 CNS it was 1.66 µM; in the assay with UACC-257 melanoma, 0.0322 µM. Moreover, the concentration for total growth inhibition (TGI) in the assay with A498 renal was determined as 18.7 µM; in the assay with A549 NSCLC, 19.5 µM; in the assay with HCC-2998 colon it was 11.8 µM; in the assay with MOLT-4 leukemia it was 40.8 µM; in the assay with OVCAR-8 ovarian, 23.2 µM; in the assay with RXF 393 renal it was 7.81 µM. Further, the concentration for total growth inhibition (TGI) in the assay with SK-MEL-2 melanoma came to 1.01 µM; with SK-MEL-5 melanoma, 0.0354 µM; in the assay with SNB-19 CNS, 19.1 µM; in the assay with UACC-257 melanoma it was 4.08 µM.
For the molecule `CC1(C)CC(=O)c2c(oc3cc(O)c(O)cc23)C1`, the TGI with A498 renal is above 100 µM; with A549 NSCLC, above 100 µM; in the assay with HCC-2998 colon it was above 100 µM; with MOLT-4 leukemia, above 100 µM; in the assay with OVCAR-8 ovarian it was 55.6 µM; in the assay on RXF 393 renal, above 100 µM. The TGI is 76.8 µM in the assay with SK-MEL-2 melanoma, 32.5 µM with SK-MEL-5 melanoma, above 100 µM in the assay with SNB-19 CNS and above 100 µM with UACC-257 melanoma.
With `NC(=O)C(=O)n1ncc(Cl)c(Cl)c1=O`, the TGI with A498 renal is above 100 µM; with A549 NSCLC, above 100 µM; in the assay with HCC-2998 colon, 32.1 µM; in the assay with MOLT-4 leukemia it was 20.4 µM; with OVCAR-8 ovarian, 65.9 µM; with RXF 393 renal, above 43.1 µM. For the same molecule, the TGI in the assay with SK-MEL-2 melanoma is 30.8 µM; in the assay with SK-MEL-5 melanoma it was 39.4 µM; with SNB-19 CNS, above 100 µM; in the assay on UACC-257 melanoma, 58.4 µM.
`C1=C2CNCC3=Cc4ccc5ccccc5c4OC23Oc2c1ccc1ccccc21`: the GI50 was 3.87 µM in the assay on A498 renal; 4.48 µM with A549 NSCLC; 3.99 µM in the assay on HCC-2998 colon; 2.86 µM in the assay with MOLT-4 leukemia; 2.99 µM in the assay with OVCAR-8 ovarian; 1.79 µM with RXF 393 renal. Also, the GI50 in the assay with SK-MEL-2 melanoma is 5.47 µM; with SK-MEL-5 melanoma, 3.15 µM; in the assay with SNB-19 CNS it was 6.95 µM; with UACC-257 melanoma, 12.6 µM. Besides, the TGI with A498 renal was 17 µM; in the assay on A549 NSCLC it was 20.5 µM; in the assay with HCC-2998 colon it was 19.7 µM; in the assay with MOLT-4 leukemia, 10.6 µM; in the assay on OVCAR-8 ovarian, 14.9 µM; with RXF 393 renal, 6.16 µM. Besides, the TGI in the assay with SK-MEL-2 melanoma was 22.8 µM; in the assay on SK-MEL-5 melanoma, 13.9 µM; in the assay on SNB-19 CNS it was 29.3 µM; in the assay with UACC-257 melanoma, 38.7 µM.
Turning to `Cn1cnc([N+](=O)[O-])c1Sc1nc(N)nc2nc[nH]c12`, the GI50 in the assay on A498 renal is above 23.7 µM; in the assay with A549 NSCLC, 13.1 µM; in the assay on HCC-2998 colon it was 3.79 µM; in the assay on MOLT-4 leukemia it was 3.55 µM; in the assay on OVCAR-8 ovarian it was 3.68 µM; in the assay on RXF 393 renal, 5.09 µM. The GI50 in the assay with SK-MEL-2 melanoma was 6.16 µM; in the assay on SK-MEL-5 melanoma it was 3.89 µM; with SNB-19 CNS it was above 100 µM; with UACC-257 melanoma, 8.38 µM. Besides, the TGI in the assay with A498 renal is above 100 µM; with A549 NSCLC, above 100 µM; in the assay on HCC-2998 colon, above 66.3 µM; in the assay with MOLT-4 leukemia, above 100 µM; in the assay on OVCAR-8 ovarian, above 100 µM; in the assay with RXF 393 renal, above 91.7 µM. Besides, the TGI is above 100 µM with SK-MEL-2 melanoma, 22.4 µM in the assay with SK-MEL-5 melanoma, above 100 µM in the assay with SNB-19 CNS and above 100 µM in the assay with UACC-257 melanoma.
